# Data as given in ChEMBL document CHEMBL3124815, “Discovery of a selective kinase inhibitor (TAK-632) targeting pan-RAF inhibition: design, synthesis, and biological evaluation of C-7-substituted 1,3-benzothiazole derivatives” (J Med Chem, 2013).
# How the values were obtained:
# [1] = Mean residence time in rat at 1 mg/kg, iv; assay type: ADME, organism-based; set-up: dose 1 mg/kg, route intravenous; conditions: in vivo
# A-375 [2] = assay: Antitumor activity against human A375 cells expressing BRAF V600E mutant xenografted in F344 nude rat assessed as reduction in tumor size at 24.1 mg/kg, po bid for 14 days relative to control; assay type: functional
# [3] = target: T1, Serine/threonine-protein kinase B-raf (Homo sapiens, UniProt P15056, V600E); assay: Inhibition of BRAF V600E mutant in human A375 cells assessed as phosphorylation of ERK after 2 hrs by Western blotting analysis; assay type: cell-based, A-375
# A-375 [4] = assay: Antitumor activity against human A375 cells expressing BRAF V600E mutant xenografted in F344 nude rat assessed as reduction in tumor size at 9.7 mg/kg, po bid for 14 days relative to control; assay type: functional
# [5] = Solubility of the compound in form of solid dispersion in phosphate buffer at pH 6.8; assay type: physicochemical
# [6] = target: T2, Serine/threonine-protein kinase B-raf (Homo sapiens, UniProt P15056); assay: Inhibition of N-terminal FLAG-tagged wild type BRAF (unknown origin) expressed in baculovirus system using GST-MEK1(K96R) as substrate after 20 mins
# [7] = target: T3, RAF proto-oncogene serine/threonine-protein kinase (Homo sapiens, UniProt P04049); assay: Inhibition of CRAF (unknown origin) compound preincubated for 1 hr in presence of 0.5 uM ATP
# [8] = Mean residence time in dog at 10 mg/kg, po; assay type: ADME, organism-based, Canis lupus familiaris; set-up: dose 10 mg/kg, route oral; conditions: in vivo
# [9] = target: Platelet-derived growth factor receptor beta (Homo sapiens, UniProt P09619); assay: Inhibition of PDGFR beta (unknown origin) using biotinylated poly-Glu-Tyr (4:1) as substrate preincubated for 5 mins measured after 12 hrs
# [10] = target: Protein kinase C theta type (Homo sapiens, UniProt Q04759); assay: Inhibition of C-terminal FLAG-tagged PKC-theta (unknown origin) expressed in […] using MBP as substrate after 60 mins
# [11] = Inhibition of PKA (unknown origin) expressed in Escherichia coli after 10 mins; set-up: species or system Homo sapiens
# Rattus norvegicus [12] = assay: Toxicity in F344 nude rat xenografted with human HMVII cells expressing NRAS Q61K/BRAF G469V mutant assessed as body weight change at 24.1 mg/kg, po bid for 14 days; assay type: organism-based; set-up: dose 24.1 mg/kg, route oral; conditions: in vivo, 336 h
# Rattus norvegicus [13] = assay: Toxicity in F344 nude rat xenografted with human A375 cells expressing BRAF V600E mutant assessed as body weight change at 9.7 mg/kg, po bid for 14 days relative to control; assay type: organism-based, A-375; set-up: dose 9.7 mg/kg, route oral; conditions: in vivo, 336 h
# Mus musculus = assay: AUC (0 to 8 hrs) in mouse at 10 mg/kg, po; assay type: ADME, organism-based, Blood; set-up: time < 8 hr, dose 10 mg/kg, route oral; conditions: in vivo
# [14] = Antiproliferative activity against human HMVII cells assessed as growth inhibition after 72 hrs by chemi-luminescence cell viability assay; assay type: functional; conditions: HMV-2, 72 h
# [15] = target: Fibroblast growth factor receptor 3 (Homo sapiens, UniProt P22607); assay: Inhibition of FGFR3 (unknown origin) using biotinylated poly-Glu-Tyr (4:1) as substrate preincubated for 5 mins measured after 12 hrs
# [16] = target: Glycogen synthase kinase-3 beta (Homo sapiens, UniProt P49841); assay: Inhibition of C-terminal FLAG-tagged GSK3beta (unknown origin) expressed in baculovirus system after 30 mins
# [17] = Solubility of the compound in phosphate buffer at pH 6.8; assay type: physicochemical
# Rattus norvegicus [18] = assay: Toxicity in F344 nude rat xenografted with human HMVII cells expressing NRAS Q61K/BRAF G469V mutant assessed as body weight change at 9.7 mg/kg, po bid for 14 days; assay type: organism-based; set-up: dose 9.7 mg/kg, route oral; conditions: in vivo, 336 h
# [19] = target: Epidermal growth factor receptor (Homo sapiens, UniProt P00533); assay: Inhibition of N-terminal peptide (DYKDDDD)-tagged EGFR (unknown origin) expressed in baculovirus system using biotinylated poly-Glu-Tyr (4:1) as substrate preincubated for 5 mins measured after 12 hrs by scintillation counting
# [20] = Mean residence time in rat at 25 mg/kg, po; assay type: ADME, organism-based; set-up: dose 25 mg/kg, route oral; conditions: in vivo
# [21] = Antitumor activity against human HMVII cells expressing NRAS Q61K/BRAF G469V mutant xenografted in F344 nude rat assessed as reduction in tumor size at 24.1 mg/kg, po bid for 14 days relative to control; assay type: functional, HMV-2
# Insulin receptor = Insulin receptor (Homo sapiens, UniProt P06213); assay: Inhibition of Insulin receptor (unknown origin) using biotinylated poly-Glu-Tyr (4:1) as substrate preincubated for 5 mins measured after 12 hrs
# Angiopoietin-1 receptor = Angiopoietin-1 receptor (Homo sapiens, UniProt Q02763); assay: Inhibition of TIE2 receptor (unknown origin) using biotinylated poly-Glu-Tyr (4:1) as substrate preincubated for 5 mins measured after 12 hrs
# [22] = target: Mast/stem cell growth factor receptor Kit (Homo sapiens, UniProt P10721); assay: Inhibition of c-Kit receptor (unknown origin) using biotinylated poly-Glu-Tyr (4:1) as substrate preincubated for 5 mins measured after 12 hrs
# [23] = Mean residence time in dog at 1 mg/kg, iv; assay type: ADME, organism-based, Canis lupus familiaris; set-up: dose 1 mg/kg, route intravenous; conditions: in vivo
# [24] = target: T2, Serine/threonine-protein kinase B-raf; assay: Binding affinity to BRAF (unknown origin) assessed as equilibrium dissociation constant by surface plasmon resonance analysis
# [25] = Inhibition of NRASQ61k/BRAFG469V-mutant in human HMVII cells assessed as phosphorylation of ERK after 2 hrs by Western blotting analysis; assay type: cell-based
# Aurora kinase B = Aurora kinase B (Homo sapiens, UniProt Q96GD4); assay: Inhibition of N-terminal His-6-tagged Aurora kinase B (unknown origin) expressed in baculovirus system after 60 mins
# [26] = target: Casein kinase I isoform delta (Homo sapiens, UniProt P48730); assay: Inhibition of CK1delta (unknown origin) using CK1tide as substrate after 20 mins
# [27] = target: Mitogen-activated protein kinase 14 (Homo sapiens, UniProt Q16539); assay: Inhibition of C-terminal FLAG-tagged p38 alpha (unknown origin) expressed in baculovirus system using MBP as substrate after 60 mins
# [28] = target: T3, RAF proto-oncogene serine/threonine-protein kinase; assay: Competitive inhibition of CRAF (unknown origin) in presence of 0.5 uM ATP by ELISA
# [29] = target: T1, Serine/threonine-protein kinase B-raf; assay: Inhibition of BRAF V600E mutant in human HT-29 cells assessed as phosphorylation of MEK; assay type: cell-based
# [30] = Antitumor activity against human HMVII cells expressing NRAS Q61K/BRAF G469V mutant xenografted in F344 nude rat assessed as reduction in tumor size at 9.7 mg/kg, po bid for 14 days relative to control; assay type: functional, HMV-2
# [31] = target: Hepatocyte growth factor receptor (Homo sapiens, UniProt P08581); assay: Inhibition of c-Met receptor (unknown origin) using biotinylated poly-Glu-Tyr (4:1) as substrate preincubated for 5 mins measured after 12 hrs
# [32] = target: Cyclin-dependent kinase 1/cyclin B1 (Homo sapiens, UniProt P06493); assay: Inhibition of CDK1/CycB (unknown origin) using histone H1 as substrate after 20 mins; assay type: protein-complex assay
# T3 sequence (P04049 whole entry): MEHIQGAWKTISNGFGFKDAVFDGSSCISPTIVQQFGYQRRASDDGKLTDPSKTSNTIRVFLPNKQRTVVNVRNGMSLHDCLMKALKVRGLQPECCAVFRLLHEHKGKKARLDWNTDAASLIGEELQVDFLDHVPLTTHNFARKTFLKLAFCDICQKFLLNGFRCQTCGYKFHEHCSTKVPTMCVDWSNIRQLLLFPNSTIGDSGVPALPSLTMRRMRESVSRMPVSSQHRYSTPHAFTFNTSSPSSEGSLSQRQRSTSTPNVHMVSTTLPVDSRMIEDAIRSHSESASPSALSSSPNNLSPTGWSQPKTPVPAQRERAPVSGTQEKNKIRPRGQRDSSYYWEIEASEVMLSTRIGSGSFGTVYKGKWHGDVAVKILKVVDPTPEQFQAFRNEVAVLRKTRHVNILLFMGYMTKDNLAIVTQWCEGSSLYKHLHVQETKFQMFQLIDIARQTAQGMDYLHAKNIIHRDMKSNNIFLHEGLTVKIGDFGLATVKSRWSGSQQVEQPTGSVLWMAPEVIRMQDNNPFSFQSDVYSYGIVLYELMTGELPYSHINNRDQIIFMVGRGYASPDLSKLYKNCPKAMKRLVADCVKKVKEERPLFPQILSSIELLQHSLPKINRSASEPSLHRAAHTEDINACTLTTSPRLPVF
# T2 sequence (P15056 whole entry): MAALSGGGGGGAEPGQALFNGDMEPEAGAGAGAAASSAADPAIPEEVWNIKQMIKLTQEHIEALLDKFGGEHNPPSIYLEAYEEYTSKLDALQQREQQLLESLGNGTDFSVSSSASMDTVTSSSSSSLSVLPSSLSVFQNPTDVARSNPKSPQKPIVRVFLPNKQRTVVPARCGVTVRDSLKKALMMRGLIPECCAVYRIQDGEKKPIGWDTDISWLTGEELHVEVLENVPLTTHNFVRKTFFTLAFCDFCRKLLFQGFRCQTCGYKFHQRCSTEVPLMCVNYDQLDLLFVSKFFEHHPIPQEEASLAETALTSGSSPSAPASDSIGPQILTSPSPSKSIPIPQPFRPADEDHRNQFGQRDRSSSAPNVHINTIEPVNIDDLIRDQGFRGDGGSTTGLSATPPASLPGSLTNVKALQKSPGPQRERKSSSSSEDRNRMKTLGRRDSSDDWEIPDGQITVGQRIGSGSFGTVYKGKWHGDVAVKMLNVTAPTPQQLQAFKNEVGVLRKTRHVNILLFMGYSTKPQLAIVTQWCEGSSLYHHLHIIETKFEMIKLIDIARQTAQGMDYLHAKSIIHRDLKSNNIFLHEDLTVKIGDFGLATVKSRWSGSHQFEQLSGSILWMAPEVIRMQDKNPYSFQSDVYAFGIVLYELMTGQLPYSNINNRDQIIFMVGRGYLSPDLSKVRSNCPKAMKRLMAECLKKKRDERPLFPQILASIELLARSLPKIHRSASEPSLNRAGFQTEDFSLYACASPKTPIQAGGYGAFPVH
# T1 sequence (P15056 2-766 V600E limits assumed): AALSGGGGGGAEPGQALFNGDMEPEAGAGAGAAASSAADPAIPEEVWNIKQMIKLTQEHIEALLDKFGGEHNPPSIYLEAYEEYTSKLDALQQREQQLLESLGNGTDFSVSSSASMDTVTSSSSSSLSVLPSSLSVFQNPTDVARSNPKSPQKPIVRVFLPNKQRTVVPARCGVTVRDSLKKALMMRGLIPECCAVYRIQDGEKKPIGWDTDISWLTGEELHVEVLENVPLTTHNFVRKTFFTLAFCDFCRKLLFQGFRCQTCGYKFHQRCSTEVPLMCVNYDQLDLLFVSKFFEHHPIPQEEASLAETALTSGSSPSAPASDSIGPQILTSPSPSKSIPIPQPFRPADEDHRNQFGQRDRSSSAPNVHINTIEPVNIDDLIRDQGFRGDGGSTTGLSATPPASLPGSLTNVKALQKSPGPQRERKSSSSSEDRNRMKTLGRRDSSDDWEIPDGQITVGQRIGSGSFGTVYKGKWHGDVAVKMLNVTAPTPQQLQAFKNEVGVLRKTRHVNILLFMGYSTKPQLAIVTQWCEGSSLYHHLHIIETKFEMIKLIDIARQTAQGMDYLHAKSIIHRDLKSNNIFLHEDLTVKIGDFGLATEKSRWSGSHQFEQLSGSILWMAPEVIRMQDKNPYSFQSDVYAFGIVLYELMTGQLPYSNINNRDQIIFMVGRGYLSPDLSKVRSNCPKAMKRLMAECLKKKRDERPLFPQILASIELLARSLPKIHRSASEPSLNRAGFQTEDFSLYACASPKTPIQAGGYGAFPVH
# Angiopoietin-1 receptor, sequence (Q02763 whole entry): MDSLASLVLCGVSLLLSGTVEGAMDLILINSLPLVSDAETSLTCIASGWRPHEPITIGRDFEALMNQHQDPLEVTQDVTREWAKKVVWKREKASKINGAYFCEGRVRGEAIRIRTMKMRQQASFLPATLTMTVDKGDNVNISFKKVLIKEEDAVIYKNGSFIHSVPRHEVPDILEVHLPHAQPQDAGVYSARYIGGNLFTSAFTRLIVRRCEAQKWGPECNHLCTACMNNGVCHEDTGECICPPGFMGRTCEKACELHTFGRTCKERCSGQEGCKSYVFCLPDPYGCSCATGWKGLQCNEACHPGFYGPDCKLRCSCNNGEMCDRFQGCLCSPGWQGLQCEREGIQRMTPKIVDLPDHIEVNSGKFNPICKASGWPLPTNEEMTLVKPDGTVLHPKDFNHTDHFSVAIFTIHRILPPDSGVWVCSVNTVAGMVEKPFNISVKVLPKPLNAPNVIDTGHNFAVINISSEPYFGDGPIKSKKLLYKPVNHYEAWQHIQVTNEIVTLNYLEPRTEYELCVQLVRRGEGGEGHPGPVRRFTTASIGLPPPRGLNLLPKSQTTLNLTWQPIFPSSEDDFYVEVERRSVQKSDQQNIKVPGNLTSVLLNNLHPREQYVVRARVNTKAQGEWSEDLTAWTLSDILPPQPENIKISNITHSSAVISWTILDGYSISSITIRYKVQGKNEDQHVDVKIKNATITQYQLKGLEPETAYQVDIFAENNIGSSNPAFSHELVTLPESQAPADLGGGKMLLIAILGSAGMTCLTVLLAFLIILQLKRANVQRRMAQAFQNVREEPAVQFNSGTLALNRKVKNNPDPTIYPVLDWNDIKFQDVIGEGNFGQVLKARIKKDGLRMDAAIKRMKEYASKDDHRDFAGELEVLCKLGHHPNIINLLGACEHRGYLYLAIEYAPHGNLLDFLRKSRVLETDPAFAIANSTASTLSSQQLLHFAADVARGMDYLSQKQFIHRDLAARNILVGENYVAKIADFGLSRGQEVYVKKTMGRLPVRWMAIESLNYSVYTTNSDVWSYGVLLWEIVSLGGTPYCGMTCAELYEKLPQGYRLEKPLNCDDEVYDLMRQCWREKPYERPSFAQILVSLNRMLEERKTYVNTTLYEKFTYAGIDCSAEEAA
# Glycogen synthase kinase-3 beta, sequence (P49841 whole entry): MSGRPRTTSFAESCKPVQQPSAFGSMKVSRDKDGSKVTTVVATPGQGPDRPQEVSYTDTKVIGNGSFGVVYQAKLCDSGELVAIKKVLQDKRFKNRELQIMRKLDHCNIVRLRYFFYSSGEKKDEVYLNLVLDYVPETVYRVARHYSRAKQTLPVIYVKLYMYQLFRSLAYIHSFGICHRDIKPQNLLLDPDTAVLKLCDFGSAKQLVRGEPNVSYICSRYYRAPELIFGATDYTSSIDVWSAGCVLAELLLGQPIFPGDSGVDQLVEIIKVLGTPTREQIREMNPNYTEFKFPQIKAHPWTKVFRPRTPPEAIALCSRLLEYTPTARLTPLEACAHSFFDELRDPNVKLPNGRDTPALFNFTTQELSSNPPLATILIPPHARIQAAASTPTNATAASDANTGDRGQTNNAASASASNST
# Casein kinase I isoform delta, sequence (P48730 whole entry, canonical isoform): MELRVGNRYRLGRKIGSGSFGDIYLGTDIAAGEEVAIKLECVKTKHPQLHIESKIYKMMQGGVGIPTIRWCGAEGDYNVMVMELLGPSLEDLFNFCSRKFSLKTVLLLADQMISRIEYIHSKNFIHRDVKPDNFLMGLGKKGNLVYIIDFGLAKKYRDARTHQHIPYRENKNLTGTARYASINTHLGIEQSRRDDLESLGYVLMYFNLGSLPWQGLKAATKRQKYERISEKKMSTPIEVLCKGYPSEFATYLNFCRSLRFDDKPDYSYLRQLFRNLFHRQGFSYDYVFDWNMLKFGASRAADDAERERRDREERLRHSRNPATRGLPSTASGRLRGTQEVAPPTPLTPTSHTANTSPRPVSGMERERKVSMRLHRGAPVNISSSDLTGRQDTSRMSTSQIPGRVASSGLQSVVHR
# Protein kinase C theta type, sequence (Q04759 whole entry): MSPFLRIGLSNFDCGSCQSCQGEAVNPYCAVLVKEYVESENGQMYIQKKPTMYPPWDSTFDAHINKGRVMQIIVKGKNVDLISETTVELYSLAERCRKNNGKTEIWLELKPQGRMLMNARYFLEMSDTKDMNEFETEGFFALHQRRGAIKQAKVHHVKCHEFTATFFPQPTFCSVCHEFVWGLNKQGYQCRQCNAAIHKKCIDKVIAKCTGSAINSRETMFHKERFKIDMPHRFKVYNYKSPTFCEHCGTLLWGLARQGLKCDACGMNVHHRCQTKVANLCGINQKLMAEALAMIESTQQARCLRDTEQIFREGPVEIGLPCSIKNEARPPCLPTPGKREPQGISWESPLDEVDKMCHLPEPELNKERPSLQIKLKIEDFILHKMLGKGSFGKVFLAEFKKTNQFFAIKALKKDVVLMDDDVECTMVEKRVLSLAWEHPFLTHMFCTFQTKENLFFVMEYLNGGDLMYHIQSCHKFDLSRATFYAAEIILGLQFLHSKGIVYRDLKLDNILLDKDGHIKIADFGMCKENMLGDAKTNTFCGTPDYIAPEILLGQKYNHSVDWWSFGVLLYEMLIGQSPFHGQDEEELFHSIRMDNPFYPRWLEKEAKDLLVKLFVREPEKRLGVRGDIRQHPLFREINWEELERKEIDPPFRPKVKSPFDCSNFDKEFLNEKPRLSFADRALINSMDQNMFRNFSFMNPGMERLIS
smiles,measurement,setting,value
N#Cc1c(Oc2ccc(F)c(NC(=O)Cc3cccc(C(F)(F)F)c3)c2)ccc2nc(NC(=O)C3CC3)sc12,MRT,[1],4.69 h
same,T/C,A-375 [2],-12.1%
same,IC50,[3],16 nM
same,T/C,A-375 [4],-2.1%
same,solubility,[5],740 µg/mL
same,IC50,[6],8.3 nM
same,IC50,[7],1.5 nM
same,MRT,[8],7.12 h
same,IC50,[9],120 nM
same,IC50,[10],> 10000 nM
same,IC50,[11],> 10000 nM
same,Activity,Rattus norvegicus [12],28.4 g
same,Activity,Rattus norvegicus [13],14 g
same,AUC,Mus musculus,2480 ng·h/mL
same,GI50,[14],200 nM
same,IC50,[15],280 nM
same,IC50,[16],500 nM
same,solubility,[17],< 0.02 µg/mL
same,Activity,Rattus norvegicus [18],9.8 g
same,IC50,[19],> 10000 nM
same,MRT,[20],6.27 h
same,T/C,[21],0%
same,IC50,Insulin receptor,> 10000 nM
same,IC50,Angiopoietin-1 receptor,740 nM
same,IC50,[22],> 10000 nM
same,MRT,[23],2.23 h
same,Kd,[24],1.6 nM
same,IC50,[25],50 nM
same,IC50,Aurora kinase B,66 nM
same,IC50,[26],> 10000 nM
same,IC50,[27],600 nM
same,IC50,[28],8.1 nM
same,inhibition,[28]; TDE = time-dependent effect,tde
same,IC50,[29],75 nM
same,T/C,[30],26%
same,IC50,[31],> 10000 nM
same,IC50,[32],790 nM
